Test results from patent US20080161289A1, “Fused Thiazole Derivatives Having Affinity for the Histamine H3 Receptor” (Glaxo Group Limited, priority 2005, published 2008).

Target: T1, histamine H3 receptors (Homo sapiens, UniProt Q9Y5N1)
T1 construct: expressed in transfected cells; host or cells: CHO K1 cells carrying pSwitch, transfected with pGeneH3, induced with mifepristone; clone 3H3; membrane preparation
Assay: Histamine H3 functional antagonist assay ([35S]-GTPγS SPA on membranes from H3 cells)
Format: biochemical
Conditions: hydrochloride salts tested; H3 functional antagonist assay using membrane prepared from cultured H3 cells; averages of a number of experiments; read-out: functional pKi (fpKi) (converted)
Excerpt: A membrane preparation containing histamine H3 receptors may be prepared in accordance with the following procedures:
(i) Generation of Histamine H3 Cell Line
DNA encoding the human histamine H3 gene (Huvar, A. et al. (1999) Mol. Pharmacol. 55(6), 1101-1107) was cloned into a holding vector, pCDNA3.1 TOPO (InVitrogen) and its cDNA was isolated from this vector by restriction digestion of plasmid DNA with the enzymes BamHI and Not-1 and ligated into the inducible expression vector pGene (InVitrogen) digested with the same enzymes. The GeneSwitch™ system (a system where in transgene expression is switched off in the absence of an inducer and switched on in the presence of an inducer) was performed as described in U.S. Pat. Nos. 5,364,791; 5,874,534; and 5,935,934. Ligated DNA was transformed into competent DH5α E. coli host bacterial cells and plated onto Luria Broth (LB) agar containing Zeocin™ (an antibiotic which allows the selection of cells expressing the sh ble gene which is present on pGene and pSwitch) at 50 μg ml^−1. Colonies containing the re-ligated plasmid were identified by restriction analysis. DNA for transfection into mammalian cells was prepared from 250 ml cultures of the host bacterium containing the pGeneH3 plasmid and isolated using a DNA preparation kit (Qiagen Midi-Prep) as per manufacturers guidelines (Qiagen).
CHO K1 cells previously transfected with the pSwitch regulatory plasmid (InVitrogen) were seeded at 2×10e6 cells per T75 flask in Complete Medium, containing Hams F12 (GIBCOBRL, Life Technologies) medium supplemented with 10% v/v dialysed foetal bovine serum, L-glutamine, and hygromycin (100 μg ml^−1), 24 hours prior to use. Plasmid DNA was transfected into the cells using Lipofectamine plus according to the manufacturers guidelines (InVitrogen). 48 hours post transfection cells were placed into complete medium supplemented with 500 μg ml^−1 Zeocin™.
10-14 days post selection 10 nM Mifepristone (InVitrogen), was added to the culture medium to induce the expression of the receptor. 18 hours post induction cells were detached from the flask using ethylenediamine tetra-acetic acid (EDTA; 1:5000; InVitrogen), following several washes with phosphate buffered saline pH 7.4 and resuspended in Sorting Medium containing Minimum Essential Medium (MEM), without phenol red, and supplemented with Earles salts and 3% Foetal Clone II (Hyclone). Approximately 1×10e7 cells were examined for receptor expression by staining with a rabbit polyclonal antibody, 4a, raised against the N-terminal domain of the histamine H3 receptor, incubated on ice for 60 minutes, followed by two washes in sorting medium. Receptor bound antibody was detected by incubation of the cells for 60 minutes on ice with a goat anti rabbit antibody, conjugated with Alexa 488 fluorescence marker (Molecular Probes). Following two further washes with Sorting Medium, cells were filtered through a 50 μm Filcon™ (BD Biosciences) and then analysed on a FACS Vantage SE Flow Cytometer fitted with an Automatic Cell Deposition Unit. Control cells were non-induced cells treated in a similar manner. Positively stained cells were sorted as single cells into 96-well plates, containing Complete Medium containing 500 μg ml^−1 Zeocin™ and allowed to expand before reanalysis for receptor expression via antibody and ligand binding studies. One clone, 3H3, was selected for membrane preparation.
(ii) Membrane Preparation from Cultured Cells
All steps of the protocol are carried out at 4° C. and with pre-cooled reagents. The cell pellet is resuspended in 10 volumes of homogenisation buffer (50 mM N-2-hydroxyethylpiperazine-N′-2-ethanesulfonic acid (HEPES), 1 mM ethylenediamine tetra-acetic acid (EDTA), pH 7.4 with KOH, supplemented with 10e-6M leupeptin (acetyl-leucyl-leucyl-arginal; Sigma L2884), 25 μg/ml bacitracin (Sigma B0125), 1 mM phenylmethylsulfonyl fluoride (PMSF) and 2×10e-6M pepstain A (Sigma)). […]

T1 sequence (Q9Y5N1 whole entry): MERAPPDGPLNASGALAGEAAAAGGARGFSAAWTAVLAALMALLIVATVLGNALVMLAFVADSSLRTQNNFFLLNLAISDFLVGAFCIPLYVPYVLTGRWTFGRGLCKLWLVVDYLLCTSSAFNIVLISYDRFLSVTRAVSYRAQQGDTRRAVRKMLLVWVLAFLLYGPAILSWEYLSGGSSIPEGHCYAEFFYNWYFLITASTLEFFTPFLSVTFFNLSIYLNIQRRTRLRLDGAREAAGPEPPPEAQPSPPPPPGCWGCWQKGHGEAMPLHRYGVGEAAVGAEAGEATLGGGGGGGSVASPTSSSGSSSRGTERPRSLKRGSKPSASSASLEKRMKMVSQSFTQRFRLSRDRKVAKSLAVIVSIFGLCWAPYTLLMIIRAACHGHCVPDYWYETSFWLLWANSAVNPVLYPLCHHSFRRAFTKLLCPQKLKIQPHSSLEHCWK

| SMILES | Ki [nM] |
| --- | --- |
| FC(F)(F)c1ccc(-c2nc3c(s2)CCN(C2CCC2)CC3)cc1 [Example E1, 6-Cyclobutyl-2-[4-(trifluoromethyl)phenyl]-5,6,7,8-tetrahydro-4H-[1,3]thiazolo[4,5-d]azepine] | < 31.6 |
| O=C1CCCN1c1ccc(-c2nc3c(s2)CCN(C2CCC2)CC3)cc1 [Example E3, 1-[4-(6-cyclobutyl-5,6,7,8-tetrahydro-4H-[1,3]thiazolo[4,5-d]azepin-2-yl)phenyl]-2-pyrrolidinone] | < 0.316 |
| c1cc(-c2nc3c(s2)CCN(C2CCC2)CC3)ccc1-c1csnn1 [Example E5, 6-Cyclobutyl-2-[4-(1,2,3-thiadiazol-4-yl)phenyl]-5,6,7,8-tetrahydro-4H-[1,3]thiazolo[4,5-d]azepine] | < 1.26 |
| O=C(c1ccc(C(F)(F)F)nc1)N1CCC(c2nc3c(s2)CCN(C2CCC2)CC3)CC1 [Example E10, 6-Cyclobutyl-2-(1-{[6-(trifluoromethyl)-3-pyridinyl]carbonyl}-4-piperidinyl)-5,6,7,8-tetrahydro-4H-[1,3]thiazolo[4,5-d]azepine] | < 31.6 |
| Cc1cnc(C(=O)N2CCC(c3nc4c(s3)CCN(C3CCC3)CC4)CC2)cn1 [Example E12, 6-Cyclobutyl-2-{1-[(5-methyl-2-pyrazinyl)carbonyl]-4-piperidinyl}-5,6,7,8-tetrahydro-4H-[1,3]thiazolo[4,5-d]azepine] | < 1.26 |
| Cc1cncc(C(=O)N2CCC(c3nc4c(s3)CCN(C3CCC3)CC4)CC2)c1 [Example E13, 6-Cyclobutyl-2-{1-[(5-methyl-3-pyridinyl)carbonyl]-4-piperidinyl}-5,6,7,8-tetrahydro-4H-[1,3]thiazolo[4,5-d]azepine] | < 0.316 |
| Cc1ccc(C(=O)N2CCC(c3nc4c(s3)CCN(C3CCC3)CC4)CC2)cc1 [Example E14, 6-Cyclobutyl-2-{1-[(4-methylphenyl)carbonyl]-4-piperidinyl}-5,6,7,8-tetrahydro-4H-[1,3]thiazolo[4,5-d]azepine] | < 1.26 |
| Cc1cc(C(=O)N2CCC(c3nc4c(s3)CCN(C3CCC3)CC4)CC2)no1 [Example E15, 6-Cyclobutyl-2-{1-[(5-methyl-3-isoxazolyl)carbonyl]-4-piperidinyl}-5,6,7,8-tetrahydro-4H-[1,3]thiazolo[4,5-d]azepine] | < 1.26 |
| O=C(c1csnn1)N1CCC(c2nc3c(s2)CCN(C2CCC2)CC3)CC1 [Example E16, 6-Cyclobutyl-2-[1-(1,2,3-thiadiazol-4-ylcarbonyl)-4-piperidinyl]-5,6,7,8-tetrahydro-4H-[1,3]thiazolo[4,5-d]azepine] | < 1.26 |
| Cn1ccc(C(=O)N2CCC(c3nc4c(s3)CCN(C3CCC3)CC4)CC2)n1 [Example E17, 6-Cyclobutyl-2-{1-[(1-methyl-1H-pyrazol-3-yl)carbonyl]-4-piperidinyl}-5,6,7,8-tetrahydro-4H-[1,3]thiazolo[4,5-d]azepine] | < 1.26 |
| Cc1cc(C(=O)N2CCC(c3nc4c(s3)CCN(C3CCC3)CC4)CC2)on1 [Example E18, 6-Cyclobutyl-2-{1-[(3-methyl-5-isoxazolyl)carbonyl]-4-piperidinyl}-5,6,7,8-tetrahydro-4H-[1,3]thiazolo[4,5-d]azepine] | < 1.26 |
| Cc1ncccc1C(=O)N1CCC(c2nc3c(s2)CCN(C2CCC2)CC3)CC1 [Example E25, 6-Cyclobutyl-2-{1-[(2-methyl-3-pyridinyl)carbonyl]-4-piperidinyl}-5,6,7,8-tetrahydro-4H-[1,3]thiazolo[4,5-d]azepine] | < 1.26 |
| CN1CCN(c2ccc(-c3nc4c(s3)CCN(C3CCC3)CC4)cc2)C1=O [Example E26, 1-[4-(6-Cyclobutyl-5,6,7,8-tetrahydro-4H-[1,3]thiazolo[4,5-d]azepin-2-yl)phenyl]-3-methyl-2-imidazolidinone] | < 0.316 |
| O=C1NCCN1c1ccc(-c2nc3c(s2)CCN(C2CCC2)CC3)cc1 [Example E27, 1-[4-(6-Cyclobutyl-5,6,7,8-tetrahydro-4H-[1,3]thiazolo[4,5-d]azepin-2-yl)phenyl]-2-imidazolidinone] | < 1.26 |
| CN1CCN(c2ccc(-c3nc4c(s3)CCN(C3CCCC3)CC4)cc2)C1=O [Example E28, 1-[4-(6-Cyclopentyl-5,6,7,8-tetrahydro-4H-[1,3]thiazolo[4,5-d]azepin-2-yl)phenyl]-3-methyl-2-imidazolidinone] | < 0.316 |

The next lines start with the values.

| Ki [nM] | SMILES |
| --- | --- |
| < 1.26 | N#Cc1ccc(N2CCC(c3nc4c(s3)CCN(C3CCC3)CC4)C2)cn1 (racemic) [Example E35, (±)-5-[3-(6-Cyclobutyl-5,6,7,8-tetrahydro-4H-[1,3]thiazolo[4,5-d]azepin-2-yl)-1-pyrrolidinyl]-2-pyridinecarbonitrile] |
| < 1.26 | Cc1ccc(N2CCC(c3nc4c(s3)CCN(C3CCC3)CC4)C2)cn1 (racemic) [Example E38, (±)-6-Cyclobutyl-2-[1-(6-methyl-3-pyridinyl)-3-pyrrolidinyl]-5,6,7,8-tetrahydro-4H-[1,3]thiazolo[4,5-d]azepine] |
| < 0.316 | Cc1cccc(N2CCC(c3nc4c(s3)CCN(C3CCC3)CC4)C2)n1 (racemic) [Example E114, (±)-6-Cyclobutyl-2-[1-(6-methyl-2-pyridinyl)-3-pyrrolidinyl]-5,6,7,8-tetrahydro-4H-[1,3]thiazolo[4,5-d]azepine] |
| < 1.26 | N#Cc1ccc(N2CCC(c3nc4c(s3)CCN(C3CCC3)CC4)C2)cn1 (single isomer, unassigned; (+)) [Example E37, (+)-5-[3-(6-Cyclobutyl-5,6,7,8-tetrahydro-4H-[1,3]thiazolo[4,5-d]azepin-2-yl)-1-pyrrolidinyl]-2-pyridinecarbonitrile] |
| < 0.316 | N#Cc1ccc(N2CCC(c3nc4c(s3)CCN(C3CCC3)CC4)C2)cn1 (single isomer, unassigned; (-)) [Example E36, (−)-5-[3-(6-Cyclobutyl-5,6,7,8-tetrahydro-4H-[1,3]thiazolo[4,5-d]azepin-2-yl)-1-pyrrolidinyl]-2-pyridinecarbonitrile] |
| < 1.26 | Cc1ccc(C(=O)N2CCC(c3nc4c(s3)CCN(C3CCC3)CC4)CC2)cn1 [Example E8, 6-Cyclobutyl-2-{1-[(6-methyl-3-pyridinyl)carbonyl]-4-piperidinyl}-5,6,7,8-tetrahydro-4H-[1,3]thiazolo[4,5-d]azepine] |
| < 0.316 | Cc1cccc(C(=O)N2CCC(c3nc4c(s3)CCN(C3CCC3)CC4)CC2)n1 [Example E11, 6-Cyclobutyl-2-{1-[(6-methyl-2-pyridinyl)carbonyl]-4-piperidinyl}-5,6,7,8-tetrahydro-4H-[1,3]thiazolo[4,5-d]azepine] |
| < 1.26 | Cc1ccc(N2CCC(c3nc4c(s3)CCN(C3CCC3)CC4)CC2)cn1 [Example E19, 6-Cyclobutyl-2-[1-(6-methyl-3-pyridinyl)-4-piperidinyl]-5,6,7,8-tetrahydro-4H-[1,3]thiazolo[4,5-d]azepine] |
| < 0.316 | N#Cc1ccc(N2CCC(c3nc4c(s3)CCN(C3CCC3)CC4)CC2)cn1 [Example E20, 5-[4-(6-Cyclobutyl-5,6,7,8-tetrahydro-4H-[1,3]thiazolo[4,5-d]azepin-2-yl)-1-piperidinyl]-2-pyridinecarbonitrile] |
| < 0.316 | NC(=O)c1ccc(N2CCC(c3nc4c(s3)CCN(C3CCC3)CC4)CC2)cn1 [Example E22, 5-[4-(6-Cyclobutyl-5,6,7,8-tetrahydro-4H-[1,3]thiazolo[4,5-d]azepin-2-yl)-1-piperidinyl]-2-pyridinecarboxamide] |
| < 1.26 | CN(C)C(=O)c1ccc(N2CCC(c3nc4c(s3)CCN(C3CCC3)CC4)CC2)cn1 [Example E24, 5-[4-(6-Cyclobutyl-5,6,7,8-tetrahydro-4H-[1,3]thiazolo[4,5-d]azepin-2-yl)-1-piperidinyl]-N,N-dimethyl-2-pyridinecarboxamide] |
